According to patent US8563730B2, “Pyrazole and fused pyrazole glucokinase activators” (Takeda San Diego, Inc., priority 2008, dated 2013):
Like-named read-outs stand apart in the source and are kept apart here.

Target: T1, GK (glucokinase, residues 12-465) (Homo sapiens, UniProt P35557)
T1 construct: I.D. No. 1 corresponds to residues 12-465 of glucokinase; made in house; host or cells: DH10b-T1r E. coli
T1 sequence (P35557 with tags, fused parts or gaps isoform P35557-2): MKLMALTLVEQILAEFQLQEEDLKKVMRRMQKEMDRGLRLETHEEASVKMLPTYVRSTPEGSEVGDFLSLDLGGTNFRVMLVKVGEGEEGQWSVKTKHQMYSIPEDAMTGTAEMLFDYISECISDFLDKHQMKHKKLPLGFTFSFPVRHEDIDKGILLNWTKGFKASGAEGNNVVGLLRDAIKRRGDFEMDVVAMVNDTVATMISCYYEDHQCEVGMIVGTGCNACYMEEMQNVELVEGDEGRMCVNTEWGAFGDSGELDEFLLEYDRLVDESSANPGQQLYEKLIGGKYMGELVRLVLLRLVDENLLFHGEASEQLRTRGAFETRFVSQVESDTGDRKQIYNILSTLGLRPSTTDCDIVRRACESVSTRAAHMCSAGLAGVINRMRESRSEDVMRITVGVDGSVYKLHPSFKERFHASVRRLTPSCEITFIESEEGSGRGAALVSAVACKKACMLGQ
Test: enzymatic glucokinase activity assay (ATP consumption, KinaseGlo luminescence)
Type: biochemical
Conditions: 5 μM ATP, 5 mM Glucose, reported as bins; for EC50: Kact = concentration that displays 50% of the maximal increase in GK activity, 60 min, room temperature, read-out: pKact
Procedure, shortened: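 E. coli-expressed recombinant GK purified by two anion-exchange steps. Reaction in 25 mM Hepes pH 7.2, 10 mM MgCl2, 1 mM DTT, 5 μM ATP, 5 mM glucose, 2% DMSO, 60 min at room temperature. ATP consumption quantified by KinaseGlo luminescence; pKact and % ACTmax derived by non-linear curve fitting.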

[1] = calculated maximal gain in GK enzyme activity at a saturating concentration of the compound, read-out: % ACTmax
[2] = read-out: % ACTmax, calculated maximal gain in GK enzyme activity at a saturating concentration of the compound

Row | EC50 [nM] | Emax [1] [%] | SMILES | Emax [2] [%]
1 | 398 to 1260 | 90 to 100 | O=C(Nc1ncc(F)s1)C(CC1CCCC1)n1ncc2c(S(=O)(=O)C3CC3)cccc21 (stereo not shown) [Compound 62, 3-cyclopentyl-2-(4-(cyclopropylsulfonyl)-1H-indazol-1-yl)-N-(5-fluorothiazol-2-yl)propanamide] | 
2 | ≤ 316 | ≥ 111 | O=C(Nc1ncc(Cl)s1)[C@H](CC1CCOCC1)n1ncc2c(S(=O)(=O)C3CC3)cccc21 [Compound 64, (S)-N-(5-chlorothiazol-2-yl)-2-(4-(cyclopropylsulfonyl)-1H-indazol-1-yl)-3-(tetrahydro-2H-pyran-4-yl)propanamide] | 
3 | 1580 to 3160 | 101 to 105 | O=C(Nc1ncc(Cl)s1)C(CC1CCOCC1)n1cc2c(S(=O)(=O)C3CC3)cccc2n1 (stereo not shown) [Compound 70, N-(5-chlorothiazol-2-yl)-2-(4-(cyclopropylsulfonyl)-2H-indazol-2-yl)-3-(tetrahydro-2H-pyran-4-yl)propanamide] | 
4 | 1580 to 3160 | ≤ 90 | O=C1CC[C@H](CC(C(=O)Nc2cnccn2)n2ncc3c(S(=O)(=O)C4CC4)cccc32)C1 (stereo partly drawn) [Compound 71, 2-(4-(cyclopropylsulfonyl)-1H-indazol-1-yl)-3-((R)-3-oxocyclopentyl)-N-(pyrazin-2-yl)propanamide] | 
5 | ≤ 316 | ≤ 90 | COc1cc(S(=O)(=O)C2CC2)c2cnn(C(CC3CCOCC3)C(=O)Nc3ncc(F)s3)c2c1 (stereo not shown) [Compound 72, 2-(4-(cyclopropylsulfonyl)-6-methoxy-1H-indazol-1-yl)-N-(5-fluorothiazol-2-yl)-3-(tetrahydro-2H-pyran-4-yl)propanamide] | 
6 | ≥ 15800 | 90 to 100 | COc1cc(S(=O)(=O)C2CC2)c2cn(C(CC3CCOCC3)C(=O)Nc3ncc(F)s3)nc2c1 (stereo not shown) [Compound 73, 2-(4-(cyclopropylsulfonyl)-6-methoxy-2H-indazol-2-yl)-N-(5-fluorothiazol-2-yl)-3-(tetrahydro-2H-pyran-4-yl)propanamide] | 
7 | 1580 to 3160 | 90 to 100 | O=C1CC[C@H](C[C@@H](C(=O)Nc2cnccn2)n2ncc3c(S(=O)(=O)C4CC4)cccc32)C1 [Compound 74, (S)-2-(4-(cyclopropylsulfonyl)-1H-indazol-1-yl)-3-((R)-3-oxocyclopentyl)-N-(pyrazin-2-yl)propanamide] | 
8 | 398 to 1260 | 90 to 100 | O=C1CC[C@H](C[C@H](C(=O)Nc2cnccn2)n2ncc3c(S(=O)(=O)C4CC4)cccc32)C1 [Compound 75, (R)-2-(4-(cyclopropylsulfonyl)-1H-indazol-1-yl)-3-((R)-3-oxocyclopentyl)-N-(pyrazin-2-yl)propanamide] | 
9 | ≥ 15800 | 101 to 105 | O=C(Nc1ncc(F)s1)[C@@H](CC1CCOCC1)n1ncc2c(S(=O)(=O)C3CC3)cc(O)cc21 [Compound 77, (R)-2-(4-(cyclopropylsulfonyl)-6-hydroxy-1H-indazol-1-yl)-N-(5-fluorothiazol-2-yl)-3-(tetrahydro-2H-pyran-4-yl)propanamide] | 
10 | 1580 to 3160 | 90 to 100 | O=C1CC[C@H](C[C@H](C(=O)Nc2ncc(F)s2)n2ncc3c(S(=O)(=O)C4CC4)cc(Cl)cc32)C1 [Compound 78, (R)-2-(6-chloro-4-(cyclopropylsulfonyl)-1H-indazol-1-yl)-N-(5-fluorothiazol-2-yl)-3-((R)-3-oxocyclopentyl)propanamide] | 
11 | ≤ 316 | 101 to 105 | COc1ccc2c(cnn2C(CC2CCOCC2)C(=O)Nc2ncc(F)s2)c1S(=O)(=O)C1CC1 (stereo not shown) [Compound 80, 2-(4-(cyclopropylsulfonyl)-5-methoxy-1H-indazol-1-yl)-N-(5-fluorothiazol-2-yl)-3-(tetrahydro-2H-pyran-4-yl)propanamide] | 
12 | 1580 to 3160 | 90 to 100 | O=C(Nc1ncc(F)s1)C(CC1CCOCC1)n1ncc2c(S(=O)(=O)C3CC3)c(OC(F)F)ccc21 (stereo not shown) [Compound 87, 2-(4-(cyclopropylsulfonyl)-5-(difluoromethoxy)-1H-indazol-1-yl)-N-(5-fluorothiazol-2-yl)-3-(tetrahydro-2H-pyran-4-yl)propanamide] | 

The next lines start with the compound.

Row | SMILES | EC50 [nM] | Emax [1] [%] | Emax [2] [%]
13 | O=C(Nc1ncc(Cl)s1)[C@@H](CC1CCOCC1)n1ncc2c(S(=O)(=O)C3CC3)cccc21 [Compound 63, (R)-N-(5-chlorothiazol-2-yl)-2-(4-(cyclopropylsulfonyl)-1H-indazol-1-yl)-3-(tetrahydro-2H-pyran-4-yl)propanamide] | 3980 to 12600 | ≥ 111 | 
14 | O=C(Nc1cnccn1)C(CC1CCOCC1)n1ncc2c(S(=O)(=O)C3CC3)cccc21 (stereo not shown) [Compound 65, 2-(4-(cyclopropylsulfonyl)-1H-indazol-1-yl)-N-(pyrazin-2-yl)-3-(tetrahydro-2H-pyran-4-yl)propanamide] | 398 to 1260 | 90 to 100 | 
15 | O=C(Nc1ncc(F)s1)C(CC1CCOCC1)n1ncc2c(S(=O)(=O)C3CC3)cccc21 (stereo not shown) [Compound 66, 2-(4-(cyclopropylsulfonyl)-1H-indazol-1-yl)-N-(5-fluorothiazol-2-yl)-3-(tetrahydro-2H-pyran-4-yl)propanamide] | ≤ 316 | 101 to 105 | 
16 | O=C(Nc1ncc(Cl)s1)C(CC1CCOCC1)n1ncc2c(S(=O)(=O)C3CC3)cc(F)cc21 (stereo not shown) [Compound 67, N-(5-chlorothiazol-2-yl)-2-(4-(cyclopropylsulfonyl)-6-fluoro-1H-indazol-1-yl)-3-(tetrahydro-2H-pyran-4-yl)propanamide] | ≤ 316 | 106 to 110 | 
17 | O=C(Nc1ncc(F)s1)[C@@H](CC1CCOCC1)n1ncc2c(S(=O)(=O)C3CC3)cccc21 [Compound 68, (R)-2-(4-(cyclopropylsulfonyl)-1H-indazol-1-yl)-N-(5-fluorothiazol-2-yl)-3-(tetrahydro-2H-pyran-4-yl)propanamide] | 3980 to 12600 | 101 to 105 | 
18 | O=C(Nc1ncc(F)s1)[C@H](CC1CCOCC1)n1ncc2c(S(=O)(=O)C3CC3)cccc21 [Compound 69, (S)-2-(4-(cyclopropylsulfonyl)-1H-indazol-1-yl)-N-(5-fluorothiazol-2-yl)-3-(tetrahydro-2H-pyran-4-yl)propanamide] | ≤ 316 | 106 to 110 | 
19 | O=C(Nc1ncc(F)s1)[C@H](CC1CCOCC1)n1ncc2c(S(=O)(=O)C3CC3)cc(O)cc21 [Compound 76, (S)-2-(4-(cyclopropylsulfonyl)-6-hydroxy-1H-indazol-1-yl)-N-(5-fluorothiazol-2-yl)-3-(tetrahydro-2H-pyran-4-yl)propanamide] | ≤ 316 | 106 to 110 | 
20 | O=C1CC[C@H](C[C@@H](C(=O)Nc2ncc(F)s2)n2ncc3c(S(=O)(=O)C4CC4)cc(Cl)cc32)C1 [Compound 79, (S)-2-(6-chloro-4-(cyclopropylsulfonyl)-1H-indazol-1-yl)-N-(5-fluorothiazol-2-yl)-3-((R)-3-oxocyclopentyl)propanamide] | ≤ 316 | 90 to 100 | 
21 | COc1ccc2c(cnn2[C@H](CC2CCOCC2)C(=O)Nc2ncc(F)s2)c1S(=O)(=O)C1CC1 [Compound 81, (R)-2-(4-(cyclopropylsulfonyl)-5-methoxy-1H-indazol-1-yl)-N-(5-fluorothiazol-2-yl)-3-(tetrahydro-2H-pyran-4-yl)propanamide] | 3980 to 12600 | 101 to 105 | 
22 | COc1ccc2c(cnn2[C@@H](CC2CCOCC2)C(=O)Nc2ncc(F)s2)c1S(=O)(=O)C1CC1 [Compound 82, (S)-2-(4-(cyclopropylsulfonyl)-5-methoxy-1H-indazol-1-yl)-N-(5-fluorothiazol-2-yl)-3-(tetrahydro-2H-pyran-4-yl)propanamide] | ≤ 316 | 106 to 110 | 
23 | COc1cc(S(=O)(=O)C2CC2)c2cnn(C(CC3CCOCC3)C(=O)Nc3ccn(C)n3)c2c1 (stereo not shown) [Compound 83, 2-(4-(cyclopropylsulfonyl)-6-methoxy-1H-indazol-1-yl)-N-(1-methyl-1H-pyrazol-3-yl)-3-(tetrahydro-2H-pyran-4-yl)propanamide] | 3980 to 12600 | ≤ 90 | 
24 | O=C(Nc1ncc(F)s1)[C@H](CC1CCOCC1)n1ncc2c(S(=O)(=O)C3CC3)cncc21 [Compound 84, (S)-2-(4-(cyclopropylsulfonyl)-1H-pyrazolo[3,4-c]pyridin-1-yl)-N-(5-fluorothiazol-2-yl)-3-(tetrahydro-2H-pyran-4-yl)propanamide] | ≤ 316 |  | 106 to 110
25 | O=C(Nc1ncc(F)s1)[C@@H](CC1CCOCC1)n1ncc2c(S(=O)(=O)C3CC3)cncc21 [Compound 85, (R)-2-(4-(cyclopropylsulfonyl)-1H-pyrazolo[3,4-c]pyridin-1-yl)-N-(5-fluorothiazol-2-yl)-3-(tetrahydro-2H-pyran-4-yl)propanamide] | 1580 to 3160 |  | 90 to 100
26 | N#Cc1cccnc1NC(=O)C(CC1CCOCC1)n1ncc2c(S(=O)(=O)C3CC3)cccc21 (stereo not shown) [Compound 86, N-(3-cyanopyridin-2-yl)-2-(4-(cyclopropylsulfonyl)-1H-indazol-1-yl)-3-(tetrahydro-2H-pyran-4-yl)propanamide] | ≥ 15800 | ≤ 90 | 
